According to patent US8835124B2, “Method for treating cancer with agents that bind phosphorylated CDC27” (The Nemours Foundation, priority 2011, dated 2014):

System: DAOY cells
Experiment: LDH release cytotoxicity assay
Assay type: cell-based, human
Details: DAOY cells treated for 16 hours
Experimental: Lactate dehydrogenase (LDH) levels as a measure of cell death were determined using the Non-radioactive Cytotoxicity kit (Promega, Madison, Wis.) according to manufacturer's instructions. […] Cell debris was removed by centrifugation. Viable cell LDH was collected from cells lysed by freezing for 15 minutes at −70° C. followed by thawing at 37° C. The medium was collected and cleared from cell debris by centrifugation. The relative release of LDH was determined as the ratio of released LDH versus total LDH from viable cells.
Data represent mean±SEM of three independent experiments.

For `COc1cc(C=CC(C)=O)ccc1O` [half-curcumin, 4-(4-hydroxy-3-methoxyphenyl)-3-buten-2-one], which “cell death (LDH release)” value is on record?
The value was “failed to induce cell death”.
